Assay [1] deals with T1, DNA repair protein RAD52 homolog (Homo sapiens, UniProt P43351).
T1 sequence (P43351 whole entry): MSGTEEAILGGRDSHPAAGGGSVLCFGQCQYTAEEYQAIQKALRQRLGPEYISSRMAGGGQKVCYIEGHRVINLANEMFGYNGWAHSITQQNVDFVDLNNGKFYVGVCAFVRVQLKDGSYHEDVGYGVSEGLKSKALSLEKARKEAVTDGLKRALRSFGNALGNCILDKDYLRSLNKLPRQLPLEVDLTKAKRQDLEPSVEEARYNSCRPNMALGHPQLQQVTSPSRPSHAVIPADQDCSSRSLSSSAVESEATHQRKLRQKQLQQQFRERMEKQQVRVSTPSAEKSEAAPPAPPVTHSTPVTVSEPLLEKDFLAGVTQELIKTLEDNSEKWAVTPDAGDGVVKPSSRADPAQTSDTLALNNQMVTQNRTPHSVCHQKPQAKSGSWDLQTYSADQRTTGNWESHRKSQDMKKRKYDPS
In kind it is functional, biochemical.

The target of another assay is T2, Protein Tat (Human immunodeficiency virus type 1 group M subtype B (isolate HXB2)(HIV-1), UniProt P04608).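 Note: tat binding to TAR RNA read out by fluorescence polarization.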
T2 sequence (P04608 whole entry): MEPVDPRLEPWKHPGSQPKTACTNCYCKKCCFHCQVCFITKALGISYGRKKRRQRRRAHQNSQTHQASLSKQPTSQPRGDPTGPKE
Format: functional.

For assay [2], the target named is Glutathione-S-transferase (Schistosoma japonicum, UniProt Q26513). Description: biotin-GST/anti-GST TR-FRET signal inhibitors, dose response, artefact control for Vif-APOBEC3G degradation inhibitor project, biochemical (AID 1117362). Format: functional. A general note: Time-resolved FRET reads energy transfer from a long-lived donor to a nearby acceptor.
Glutathione-S-transferase, sequence (Q26513 whole entry): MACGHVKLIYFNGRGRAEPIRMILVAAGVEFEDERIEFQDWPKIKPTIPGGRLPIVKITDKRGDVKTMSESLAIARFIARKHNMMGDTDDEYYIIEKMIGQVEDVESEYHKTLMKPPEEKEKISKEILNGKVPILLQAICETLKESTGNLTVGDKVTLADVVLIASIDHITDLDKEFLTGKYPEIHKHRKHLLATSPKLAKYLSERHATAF
In the next assay the target is Nonstructural protein 1 (Influenza A virus, UniProt Q194T2). Format: functional, Influenza A virus (A/California/07/2009(H1N1)).
Nonstructural protein 1, sequence (Q194T2 whole entry): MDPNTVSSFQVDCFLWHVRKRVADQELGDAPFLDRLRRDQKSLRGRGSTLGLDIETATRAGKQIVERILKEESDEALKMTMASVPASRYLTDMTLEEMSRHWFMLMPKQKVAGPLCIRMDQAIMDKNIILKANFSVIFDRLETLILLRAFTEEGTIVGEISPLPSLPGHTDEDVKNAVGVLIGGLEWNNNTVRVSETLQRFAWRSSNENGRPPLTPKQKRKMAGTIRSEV
The nature of assay [3]: HeLa cell cytotoxicity, dose response, cytotoxicity control for MgcRacGAP inhibitor project (AID 624300). In kind it is functional.
Assay [4] concerns the target T3, Rac GTPase-activating protein 1 (Homo sapiens, UniProt Q9H0H5).
T3 sequence (Q9H0H5 whole entry): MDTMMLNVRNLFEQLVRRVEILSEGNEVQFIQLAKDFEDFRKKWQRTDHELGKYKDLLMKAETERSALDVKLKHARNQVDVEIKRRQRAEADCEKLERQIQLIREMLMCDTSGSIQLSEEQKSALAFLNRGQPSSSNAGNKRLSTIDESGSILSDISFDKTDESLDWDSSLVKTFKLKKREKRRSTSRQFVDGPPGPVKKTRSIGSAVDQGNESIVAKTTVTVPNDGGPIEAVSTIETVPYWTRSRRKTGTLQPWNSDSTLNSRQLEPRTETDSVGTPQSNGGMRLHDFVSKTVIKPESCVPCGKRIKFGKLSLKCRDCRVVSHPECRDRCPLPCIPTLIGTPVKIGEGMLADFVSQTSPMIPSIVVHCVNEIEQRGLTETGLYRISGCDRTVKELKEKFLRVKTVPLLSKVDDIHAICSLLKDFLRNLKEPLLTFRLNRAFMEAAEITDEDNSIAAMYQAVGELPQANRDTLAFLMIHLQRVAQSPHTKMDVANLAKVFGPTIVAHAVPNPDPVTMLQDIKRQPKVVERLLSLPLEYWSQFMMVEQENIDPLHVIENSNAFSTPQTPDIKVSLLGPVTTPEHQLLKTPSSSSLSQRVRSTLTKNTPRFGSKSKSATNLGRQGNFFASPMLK
Put plainly: MgcRacGAP GTPase-activating activity inhibitors, confirmation, biochemical, ADP Hunter fluorescence, primary and confirmatory (AID 624330). In kind it is functional.

The target in assay [5] is Matrix metalloproteinase-14 (Homo sapiens, UniProt P50281). Put plainly: Dose Response confirmation of uHTS hits for a small molecule inhibitors of MT1-MMP activation in a fluorescence assay set 1. Format: functional.
Assay [6] deals with T4, Histone-lysine N-methyltransferase NSD2 (Homo sapiens, UniProt O96028).
T4 sequence (O96028 whole entry): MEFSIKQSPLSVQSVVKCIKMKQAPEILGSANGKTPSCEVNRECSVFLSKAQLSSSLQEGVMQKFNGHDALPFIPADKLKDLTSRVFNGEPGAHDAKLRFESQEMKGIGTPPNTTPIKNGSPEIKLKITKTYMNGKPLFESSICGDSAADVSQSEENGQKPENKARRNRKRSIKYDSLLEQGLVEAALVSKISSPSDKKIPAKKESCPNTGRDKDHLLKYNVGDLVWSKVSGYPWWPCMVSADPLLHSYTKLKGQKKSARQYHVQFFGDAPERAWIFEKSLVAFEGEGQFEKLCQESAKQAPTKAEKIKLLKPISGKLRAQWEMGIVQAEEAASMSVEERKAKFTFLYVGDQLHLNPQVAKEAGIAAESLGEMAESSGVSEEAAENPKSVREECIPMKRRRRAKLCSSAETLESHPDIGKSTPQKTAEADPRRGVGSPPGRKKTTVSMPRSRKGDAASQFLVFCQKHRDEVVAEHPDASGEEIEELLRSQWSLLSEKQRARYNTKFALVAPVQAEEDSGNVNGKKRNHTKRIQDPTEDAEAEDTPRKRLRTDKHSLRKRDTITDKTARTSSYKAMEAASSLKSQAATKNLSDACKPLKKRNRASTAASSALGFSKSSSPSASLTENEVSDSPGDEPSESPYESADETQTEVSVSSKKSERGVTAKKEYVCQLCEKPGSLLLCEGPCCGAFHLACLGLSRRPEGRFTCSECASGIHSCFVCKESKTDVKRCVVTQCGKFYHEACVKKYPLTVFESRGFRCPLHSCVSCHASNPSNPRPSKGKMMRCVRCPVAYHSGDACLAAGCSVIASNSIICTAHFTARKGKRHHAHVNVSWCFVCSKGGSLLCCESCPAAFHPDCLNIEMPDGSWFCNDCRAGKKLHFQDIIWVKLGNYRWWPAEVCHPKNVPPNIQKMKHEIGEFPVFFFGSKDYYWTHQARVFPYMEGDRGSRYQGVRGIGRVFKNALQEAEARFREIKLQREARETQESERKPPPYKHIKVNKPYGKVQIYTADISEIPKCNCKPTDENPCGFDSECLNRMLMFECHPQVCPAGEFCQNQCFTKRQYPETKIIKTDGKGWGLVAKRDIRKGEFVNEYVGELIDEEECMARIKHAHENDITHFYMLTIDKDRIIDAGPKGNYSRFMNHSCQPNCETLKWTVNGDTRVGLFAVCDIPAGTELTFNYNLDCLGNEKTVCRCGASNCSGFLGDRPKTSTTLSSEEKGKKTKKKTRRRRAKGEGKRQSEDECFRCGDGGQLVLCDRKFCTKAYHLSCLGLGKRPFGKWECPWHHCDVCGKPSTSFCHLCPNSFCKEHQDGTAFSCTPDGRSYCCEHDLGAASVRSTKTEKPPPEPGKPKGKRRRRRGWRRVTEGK
Format: biochemical.

The target of assay [7] is T5, Fibrinogen beta chain (Homo sapiens, UniProt P02675). Put plainly: Fluorescence polarization-based biochemical high throughput dose response assay to identify inhibitors that disrupt the binding of a cyclic peptide (Tn6) to the fibrin proteolytic product D-Dimer and fragment E complex [DD(E )].
T5 sequence (P02675 whole entry, the tested form may be a part): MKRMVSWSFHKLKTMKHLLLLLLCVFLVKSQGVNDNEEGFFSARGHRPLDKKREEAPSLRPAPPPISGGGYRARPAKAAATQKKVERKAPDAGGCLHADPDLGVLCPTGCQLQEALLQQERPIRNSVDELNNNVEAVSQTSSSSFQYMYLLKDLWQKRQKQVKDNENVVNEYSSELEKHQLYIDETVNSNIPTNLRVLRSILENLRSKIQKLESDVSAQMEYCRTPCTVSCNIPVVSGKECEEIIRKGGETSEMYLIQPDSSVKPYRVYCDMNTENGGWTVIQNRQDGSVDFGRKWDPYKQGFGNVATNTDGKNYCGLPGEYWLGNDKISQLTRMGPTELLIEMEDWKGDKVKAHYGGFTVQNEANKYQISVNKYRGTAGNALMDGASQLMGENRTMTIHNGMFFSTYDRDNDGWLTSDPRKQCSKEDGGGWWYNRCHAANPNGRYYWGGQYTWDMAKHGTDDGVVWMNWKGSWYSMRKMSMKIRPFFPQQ
Assay [8] deals with T5, Fibrinogen beta chain. Put plainly: Fluorescence polarization-based biochemical high throughput dose response assay to identify inhibitors that disrupt the binding of a cyclic peptide (Tn7) to the fibrin proteolytic product D-Dimer and fragment E complex [DD(E )]. For orientation: Fluorescence polarisation rises when a labelled molecule tumbles more slowly, as on binding a larger partner.

A short description of assay [9]: TRPM1 promoter luciferase reporter signal decrease, dose response, MITF inhibitor project, cell-based, SK-MEL-5, dry powder, set 9 (AID 651588). Format: functional.
Assay [10] can be described thus: A375 melanoma cell viability loss, dose response, counter-screen for MITF inhibitor project, CellTiter-Glo luminescence, dry powder, set 4 (AID 624364).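 Note: A375 melanoma cells are MITF independent so this is a counter screen.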 Format: functional, cell-based. Particulars: A-375. For orientation: The purpose of a counterscreen is to sort out artefacts and off-target activity.
A short description of assay [11]: A375 melanoma cell cytotoxicity, dose response, counter-screen for MITF inhibitor project, CellTiter-Glo luminescence, dry powder, set 7 (AID 624490). Format: functional, cell-based. The settings on record: A-375.
Assay [12] in a line: MITF Orthogonal Assay: MALME3 CTG Assay Measured in Cell-Based System Using Plate Reader - 2084-04_Inhibitor_Dose_DryPowder_Activity_Set6. In kind it is functional. The settings on record: MALME-3.
The nature of assay [13]: SK-MEL-5 parental cell viability reduction, dose response, orthogonal assay for MITF inhibitor project, CellTiter-Glo luminescence, dry powder, set 8 (AID 651586). Format: functional, cell-based.
The nature of assay [14]: MALME3 melanoma cell viability reduction, dose response, orthogonal assay for MITF inhibitor project, CellTiter-Glo luminescence, dry powder, set 5 (AID 651584). Format: functional, cell-based. The settings on record: MALME-3.
Assay [15] in a line: SK-MEL-5 parental line viability, dose response, MITF inhibitor project, cell-based, CellTiter-Glo, dry powder, set 6 (AID 624429). Format: functional.
Assay [16] can be described thus: MITF Orthogonal Assay: SK-MEL-5 CTG Assay Measured in Cell-Based System Using Plate Reader - 2084-02_Inhibitor_Dose_DryPowder_Activity_Set5. In kind it is functional.
The nature of assay [17]: A375 melanoma cell cytotoxicity, dose response, counter-screen for MITF inhibitor project, CellTiter-Glo luminescence, dry powder, set 6 (AID 624488). The settings on record: A-375. Format: functional, cell-based.
The nature of assay [18]: A375 melanoma cell viability loss, dose response, counter-screen for MITF modulator project, CellTiter-Glo luminescence, dry powder, set 9 (AID 651591). In kind it is functional, cell-based. Particulars: A-375.
Assay [19] in a line: MITF Measured in Cell-Based System Using Plate Reader - 2084-01_Inhibitor_Dose_DryPowder_Activity_Set6. Format: functional.
Assay [20] in a line: MITF Measured in Cell-Based System Using Plate Reader - 2084-01_Inhibitor_Dose_DryPowder_Activity_Set7. Format: functional.
Assay [21] is described as follows: cytotoxicity in primary human melanocytes, dose response, cytotoxicity control, cell-based, plate reader, dry powder (AID 651920). Format: functional.

Calls of active or inactive are those of the source. Bounds are passed on as bounds.

What is called AC50 is the midpoint of the concentration-response curve, whichever way the signal moves. Broadly, the IC50 is the concentration needed to halve the response being measured. With `Nc1ccc(N2CCN(CCCCN3C(=O)C4CCCN4C3=O)CC2)cc1` (centres undefined), in assay [1], the AC50 is 1.29 µM (active). Also, the IC50 was > 100 µM (active) on Protein Tat and 3.15 µM (active) in assay [2].

Broadly, the CC50 is the concentration at which the toxic effect on the cells reaches its halfway point. For the compound `O=C1c2cccc(NCCCNCCO)c2C(=O)c2cccc(NCCCNCCO)c21`, the IC50 was 10.1 µM (active) at Nonstructural protein 1; 27.8 µM (active) in assay [4]; 38 µM (inactive) in [5]; 9.1 µM (active) on Fibrinogen beta chain [7]; > 83.3 µM (inactive) on Fibrinogen beta chain [8]. Also, the CC50 in assay [3] was 25.6 µM (active). In addition, the AC50 was < 0.15 µM (active) in assay [1] and 3.53 µM (active) in assay [6].

Regarding `COC1=C(NS(=O)(=O)c2cccs2)C(=O)c2ccccc2C1=O`, the AC50 is 26.3 µM (active) in assay [9]; > 70 µM (inactive) in assay [10]; > 70 µM (inactive) in [11]; 38 µM (active) in assay [12]; 21 µM (active) in assay [13]; 38 µM (active) in assay [14]. Further, the AC50 in [15] was 20.2 µM (active); in assay [16] it was 19.1 µM (active); in assay [17], 64.7 µM (active); in assay [18], > 70 µM (inactive); in assay [19], 13.2 µM (active); in assay [20], 12.3 µM (active). Moreover, in [21], the AC50 was 64.3 µM (active).

The values above are taken from ChEMBL document CHEMBL1201862, “PubChem BioAssay data set” (2004).
